Reference: a melting point compilation (Tetko et al.; mined from patent text by program, amines drawn as free bases though some values may be those of a salt)

| Compound | melting point |
| --- | --- |
| CC12CCC3C(CC(O)C4(O)CC=CCC34C)C1CC=C2Br (stereo not drawn) | 170 to 175 °C |
| CN1CCC(Nc2ncc3ncnc(Nc4ccc(Oc5ccccc5)cc4)c3n2)CC1 | 157 °C |
| CC(=O)N1C(=O)C(C(=O)c2cccs2)c2cc(Cl)ccc21 (stereo not drawn) | 168 to 170 °C |
| O=[N+]([O-])c1ccc(OCc2ccc(C(F)(F)F)cc2)cc1 | 80.5 to 81.5 °C |
| CCOC(=O)C(CC(=O)c1ccccc1C(F)(F)F)(NC(C)=O)C(=O)OCC | 104 to 105 °C |
| CC(C)(C)OC(=O)Nc1ccc(I)cc1 | 148 to 149 °C |
| COC(=O)C(Cc1ccc(-c2cccc(CNCC(=O)c3ccccc3)c2)cc1)Nc1ccccc1C(=O)c1ccccc1 (stereo not drawn) | 75 °C |
| COc1cc(CC2COC(c3ccc(O)c(OC)c3)C2CO)ccc1O (stereo not drawn) | 169 to 171 °C |
| COc1ccnc(CCc2nc3cc(-c4ccc(O)cc4)cnc3[nH]2)c1 | 206 to 208 °C |
| FC(F)(F)c1nc(Cl)c2ccccc2n1 | 62 to 63.5 °C |
| CC1(C)CC(=O)Nc2c(CCN3CCN(C4=NS(=O)c5ccccc54)CC3)cc(F)cc21 (stereo not drawn) | 235 °C |
| Oc1nc(O)c2c(n1)CCCS2 | > 300 °C |
| S=C1NCC2c3ccccc3Cc3ccccc3N12 (stereo not drawn) | 222 to 224 °C |
| CSc1nn2c(Cl)cc(CN3CCOCC3)nc2c1S(=O)(=O)c1ccccc1 | 174 to 176 °C |
| CCNc1nc(Oc2ccccc2)nc2nc(-c3ccco3)nn12 | 127 to 129 °C |
| Cn1ncc2c(c1=O)SCCNC2Cc1ccccc1 (stereo not drawn) | 108 to 109 °C |

| Compound | melting point |
| --- | --- |
| CN(C)C(=O)Nc1ccc(Oc2ccc3ccccc3c2)c(C(F)(F)F)c1 | 210 to 211 °C |
| CCN(CC)C(=O)Oc1cc(-c2ccncc2)nc2ccccc12 | 76 °C |
| CCC1(O)CCC2C3=C(CCC21C)c1ccc(OC)cc1CC3 (stereo not drawn) | 105 to 120 °C |
| CC(=O)OC1C(N2CCCCC2)CC2C3CCC4CCC(O)CC4(C)C3CCC21C (stereo not drawn) | 239 to 240 °C |
| COc1ccc(C(C#Cc2ccccc2)CC(C)=O)cc1OC1CCCC1 (racemic) | 62 to 64 °C |
| COc1ccc(/C=C/c2cc(F)cc(F)c2)cc1 | 108 to 110 °C |
| Cc1c(-c2ccccc2)oc2c(C(=O)NCCCN3CCN(c4ccc(Cl)cc4)CC3)cccc2c1=O | 200 to 204 °C |
| COC(=O)c1ccc(Nc2ccc(C#N)cc2N)cc1 | 164 to 165 °C |
| CCc1ccc2c(c1)OC(C(F)(F)F)C(C(=O)O)=C2 (stereo not drawn) | 167 to 169 °C |
| COC(=O)C1=C(O)C(=O)O[C@@H]1C | 94 to 96 °C |
| O=C(O)Cc1ccc2c(c1)CC(CNS(=O)(=O)c1ccc3ccccc3c1)C2 (stereo not drawn) | 180 to 182 °C |
| CCC(=O)COc1ccc(CC2SC(=O)N(C(c3ccccc3)(c3ccccc3)c3ccccc3)C2=O)cc1 (stereo not drawn) | 155 to 156 °C |
| CC(C)N(CCNc1ccc([N+](=O)[O-])c2ccccc12)C(C)C | 63 to 64 °C |
| Cc1nc(Oc2ccccc2)c2nc(C)n(CCNC(=O)OC(C)(C)C)c2c1C | 180 to 182 °C |
| Cc1cc(C)n(-c2ccc(C#N)nn2)n1 | 187 to 189 °C |
| CCCCCCCCCCCCCCCCN(C)S(=O)(=O)c1ccc(Cl)c([N+](=O)[O-])c1 | 74 to 75 °C |

Further lines, results first:

| melting point | Compound |
| --- | --- |
| 171 °C | CC(=O)Nc1ccc2c(c1)OCc1cc([N+](=O)[O-])ccc1C2=O |
| 112 to 115 °C | COc1ccc(C(=O)c2cc(Cl)ccc2N)c(O)c1OC |
| 70 °C | COc1cccc(C#Cc2ccccc2)c1 |
| > 320 °C | Cc1cc(F)cc2c1-c1ccc(F)cc1C21NC(=O)NC1=O (stereo not drawn) |
| 69 to 69.5 °C | CC(C)C(=O)Oc1ccc(C(=O)c2ccccc2)cc1 |
| 105 to 106 °C | CCOC(=O)c1c(-c2ccccc2Cl)c2cc(CC)sc2n(C)c1=O |
| 67 to 69 °C | COc1ccc2c(c1)CC(O)C2 (stereo not drawn) |
| 196 to 198 °C | COc1ccc(NC(=O)Nc2ccccc2)cc1 |
| 219 °C | CS(=O)(=O)c1ccc(N2CC(O)(C(F)(F)F)N=C2c2ccncc2)cc1 (stereo not drawn) |
| 108 to 110 °C | CCCCCCCCCc1ccc2c(c1)C1(O)C(=O)c3ccccc3C1(O)O2 (stereo not drawn) |
| 200 to 201 °C | CC(C)n1nc(-c2sc(NC(=O)CCNCc3ccccn3)nc2-c2ccccc2)ccc1=O |
| 182 to 186 °C | COC(=O)c1ccc(NC(C)=O)c(NC(=O)COC(C)=O)c1 |
| 82 to 83 °C | CN(C)CCCOc1ccc(C(=O)NN)nc1 |
| 67 to 69 °C | Cc1cc(CCCCCOc2c(Cl)cc(C(=O)O)cc2Cl)on1 |
| 156 to 157 °C | O=C1Nc2cc3c(cc2OC1CCCN1CCN(c2ccc(F)cc2)CC1)CCCC3 (stereo not drawn) |
| 134 to 136 °C | COC(=O)/C=C/C#Cc1cccc(S(=O)(=O)Nc2ccccc2)c1 |
| 149 to 150 °C | OCC1=C(c2ccc3sccc3c2)N2CCN=C2S1 |
| 224 °C | C[C@H]([C@H](O)c1ccc2c(c1)OC(c1ccccc1)(c1ccccc1)O2)N1CCC(O)(c2ccccc2)CC1 (relative stereo) |
| 191 to 192 °C | Cc1cc(NS(=O)(=O)c2cccc(S(=O)(=O)Nc3cc(C)c(S(=O)(=O)C[N+](=O)[O-])c(C)c3)c2)cc(C)c1S(=O)(=O)C[N+](=O)[O-] |
| 194 to 195 °C | CCn1cc(C(=O)O)c(=O)c2cc(F)c(-c3csc(CN)n3)c(NC)c21 |
| 98 to 100 °C | CC(C)OP(=O)(OC(C)C)C(Nc1ccccn1)P(=O)(OC(C)C)OC(C)C |

| melting point | Compound |
| --- | --- |
| 263 to 265 °C | CCN1C(=O)C(C)(C)c2cc(-c3nc4ccccc4[nH]3)ccc21 |
| 200 to 203 °C | COc1ccc(-c2c3c(cc4ccc(O)cc24)-c2ccc(O)cc2CO3)cc1 |
| > 295 °C | Nc1cc(=O)[nH]c(=O)n1C1CCc2ccccc21 (stereo not drawn) |
| 78 to 80 °C | CCOC(=O)CC(=O)Cc1ccc(Br)cc1[N+](=O)[O-] |
| 104 to 107 °C | CC(C)c1noc(-c2c(Cl)ccc(C(=O)O)c2Cl)n1 |
| 127 to 129 °C | C#CCOC(=O)c1ccc(O)c(O)c1 |
| 97 °C | CN(C)C=C(C=O)c1ccc(C(F)(F)F)cc1 |
| 134 to 135 °C | CC1CCN(C)c2nc(O)ccc21 (stereo not drawn) |
| 214 to 216 °C | CCc1c(Sc2cc(Cl)cc(Cl)c2)c(C(N)=O)nn1CCO |
| 163 °C | O=C(c1cc2ccccc2o1)c1ccc(O)c(Cl)c1Cl |
| 47 to 49 °C | CC(C)C(=O)CCC(=O)c1ccc(F)cc1 |
| 195 to 197 °C | CS(=O)(=O)c1ccc(-c2cnn(-c3ccc(F)cc3)c(=O)c2-c2ccc(Cl)cc2)cc1 |
| 152 to 153 °C | CCC(=O)NCC1CC1c1c(Cl)ccc2nn(C)cc12 (stereo not drawn) |
| 193 to 195 °C | COc1ccc(C(=O)Nc2ccccc2)cc1NCc1ccc(OC(C)=O)cc1 |
| 92 °C | COc1ccc(C(O)CNCCc2ccc(OC)c(OC)c2)cc1 (stereo not drawn) |
| 110 °C | CNC(=NCCS(=O)Cc1nccs1)NC#N (stereo not drawn) |
| 178 to 179 °C | N=C(N)NCCCOc1ccc2c(c1)CC(CC(=O)O)C(=O)N2 (stereo not drawn) |
| > 270 °C | CC(C)Cc1csc2[nH]c(=O)c(=O)[nH]c12 |
| 148 to 150 °C | CC(C)(C)c1cc(C=Cc2cc(C=Cc3cc(C(C)(C)C)cc(C(C)(C)C)c3)cc(C=C(Br)Br)c2)cc(C(C)(C)C)c1 |
| 187 to 188 °C | CC(C)Cc1ccccc1Sc1c(O)cc(-c2cccc(-c3ccccc3)c2)oc1=O |
